Assay results taken from ChEMBL document CHEMBL5143526, “Acridine-O6-benzylguanine hybrids: Synthesis, DNA binding, MGMT inhibition and antiproliferative activity” (Eur J Med Chem, 2022).
pEC50, pKd: −log10 of the molar value. Active and inactive are the calls of the source. The rule behind the calls is not given here.

What was measured:
T98G [1] = assay: Additive antiproliferative activity against human T98G cells assessed as reduction in cell viability at 25 uM pretreated for 2 hrs followed by TMZ addition at 94 uM and measured after 94 hrs by CellTiter-Glo luminescent cell viability assay; assay type: functional, cell-based; conditions: time 96.0 hrs
[2] = Fluorescence property of compound in MeOH assessed as quantum yield; assay type: physicochemical
[3] = Fluorescence property of compound in THF assessed as quantum yield; assay type: physicochemical
[4] = Fluorescence property of compound in MeCN assessed as quantum yield; assay type: physicochemical
[5] = Thermal stability of compound in aqueous solution at 10 uM at 20 to 75 degreeC by UV-vis absorption spectroscopy; assay type: physicochemical; conditions: buffer
T98G [6] = assay: Antagonistic antiproliferative activity against human T98G cells assessed as reduction in cell viability at GI50 pretreated for 2 hrs followed by TMZ addition at 188 uM and measured after 94 hrs by CellTiter-Glo luminescent cell viability assay; assay type: functional, cell-based; conditions: time 96.0 hrs
T98G [7] = assay: Antiproliferative activity against human T98G cells assessed as cell growth inhibition incubated for 96 hrs by CellTiter-Glo luminescent cell viability assay; assay type: functional
Calf thymus DNA [8] = assay: Binding affinity to calf thymus DNA assessed as intercalation by measuring dissociation constant at 20 uM measured after 5 mins by UV-Vis spectrophotometric titration analysis; assay type: nucleic-acid assay, Bos taurus
[9] = Fluorescence property of compound in aqueous solution assessed as quantum yield; assay type: physicochemical; conditions: buffer
T98G [10] = assay: Additive antiproliferative activity against human T98G cells assessed as reduction in cell viability at GI50 pretreated for 2 hrs followed by TMZ addition at 375 uM and measured after 94 hrs by CellTiter-Glo luminescent cell viability assay; assay type: functional, cell-based; conditions: time 96.0 hrs
Calf thymus DNA [11] = assay: Binding affinity to calf thymus DNA assessed as ligand-induced thermal stabilization of DNA duplex by measuring change in melting temperature at 6.25 uM by thermal denaturation analysis; assay type: nucleic-acid assay; conditions: Bos taurus
T98G [12] = assay: Synergistic antiproliferative activity against human T98G cells assessed as reduction in cell viability at 25 uM pretreated for 2 hrs followed by TMZ addition at 94 uM and measured after 94 hrs by CellTiter-Glo luminescent cell viability assay; assay type: functional, cell-based; conditions: time 96.0 hrs
T98G [13] = assay: Additive antiproliferative activity against human T98G cells assessed as reduction in cell viability at 25 uM pretreated for 2 hrs followed by TMZ addition at 188 uM and measured after 94 hrs by CellTiter-Glo luminescent cell viability assay; assay type: functional, cell-based; conditions: time 96.0 hrs
T98G [14] = assay: Additive antiproliferative activity against human T98G cells assessed as reduction in cell viability at 25 uM pretreated for 2 hrs followed by TMZ addition at 375 uM and measured after 94 hrs by CellTiter-Glo luminescent cell viability assay; assay type: functional, cell-based; conditions: time 96.0 hrs
[15] = tested on: Panel NCI-60 (60 carcinoma cell lines); assay: Antiproliferative activity against human Panel NCI-60 (60 carcinoma cell lines) assessed as cell growth inhibition incubated for 48 hrs; assay type: functional
T98G [16] = assay: Additive antiproliferative activity against human T98G cells assessed as reduction in cell viability at GI50 pretreated for 2 hrs followed by TMZ addition at 188 uM and measured after 94 hrs by CellTiter-Glo luminescent cell viability assay; assay type: functional, cell-based
T98G [17] = assay: Synergistic antiproliferative activity against human T98G cells assessed as reduction in cell viability at GI50 pretreated for 2 hrs followed by TMZ addition at 94 uM and measured after 94 hrs by CellTiter-Glo luminescent cell viability assay; assay type: functional, cell-based; conditions: time 96.0 hrs
Calf thymus DNA [18] = assay: Binding affinity to calf thymus DNA assessed as ligand induced positive CD band at 50 uM by Circular dichroism spectroscopy analysis; assay type: nucleic-acid assay; conditions: Bos taurus
Calf thymus DNA [19] = assay: Displacement of ethidium bromide from calf thymus DNA incubated for 30 mins by fluorescence microplate reader assay; assay type: nucleic-acid assay, Bos taurus
T98G [20] = assay: Antiproliferative activity against human T98G cells assessed as cell viability at 94 uM incubated for 96 hrs by CellTiter-Glo luminescent cell viability assay relative to control; assay type: functional; conditions: read-out: Activity
T98G [21] = assay: Antiproliferative activity against human T98G cells assessed as cell viability at 375 uM incubated for 96 hrs by CellTiter-Glo luminescent cell viability assay relative to control; assay type: functional; conditions: read-out: Activity
T98G [22] = assay: Antiproliferative activity against human T98G cells assessed as cell viability at 188 uM incubated for 96 hrs by CellTiter-Glo luminescent cell viability assay relative to control; assay type: functional; conditions: read-out: Activity
T98G [23] = assay: Antiproliferative activity against human T98G cells assessed as cell viability at 25 uM incubated for 96 hrs by CellTiter-Glo luminescent cell viability assay relative to control; assay type: functional; conditions: read-out: Activity
T98G [24] = assay: Synergistic antiproliferative activity against human T98G cells assessed as reduction in cell viability at GI50 pretreated for 2 hrs followed by TMZ addition at 375 uM and measured after 94 hrs by CellTiter-Glo luminescent cell viability assay; assay type: functional, cell-based; conditions: time 96.0 hrs
T98G [25] = assay: Induction of apoptosis in human T98G cells assessed as increase in early apoptotic cells at 1.1 uM pretreated for 2 hrs followed by TMZ addition and measured after 96 hrs by Annexin V-FITC/PI staining based flow cytometry analysis relative to control; assay type: functional; conditions: time 98 hrs
[26] = Drug localization in cytosolic region of human T98G cells at 1.1 uM measured after 96 hrs by confocal microscope based live cell imaging analysis; assay type: ADME, subcellular; conditions: cytosol
[27] = Drug localization in perinuclear region of nuclear membrane of human T98G cells assessed as appearance of z-stacked series at 1.1 uM measured after 96 hrs by confocal microscope based live cell imaging analysis; assay type: ADME, cell membranes
T98G [28] = assay: Induction of apoptosis in human T98G cells assessed as increase in early apoptotic cells at 1.1 uM measured after 96 hrs by Annexin V-FITC/PI staining based flow cytometry analysis relative to control; assay type: functional
T98G [29] = assay: Antagonistic antiproliferative activity against human T98G cells assessed as reduction in cell viability at 25 uM pretreated for 2 hrs followed by TMZ addition at 375 uM and measured after 94 hrs by CellTiter-Glo luminescent cell viability assay; assay type: functional, cell-based; conditions: time 96.0 hrs
T98G [30] = assay: Antagonistic antiproliferative activity against human T98G cells assessed as reduction in cell viability at GI50 pretreated for 2 hrs followed by TMZ addition at 94 uM and measured after 94 hrs by CellTiter-Glo luminescent cell viability assay; assay type: functional, cell-based; conditions: time 96.0 hrs
T98G [31] = assay: Antagonistic antiproliferative activity against human T98G cells assessed as reduction in cell viability at GI50 pretreated for 2 hrs followed by TMZ addition at 375 uM and measured after 94 hrs by CellTiter-Glo luminescent cell viability assay; assay type: functional, cell-based; conditions: time 96.0 hrs
HT-29 = assay: Growth inhibition of human HT-29 cells measured after 24 hrs; assay type: functional
T98G [32] = assay: Induction of DNA damage in human T98G cells assessed as increase in gammaH2AX foci number and size at 92 uM pretreated for 2 hrs followed by TMZ addition and measured after 94 hrs by DAPI staining based immunofluorescence assay; assay type: functional, cell-based; conditions: time 96.0 hrs
T98G [33] = assay: Induction of apoptosis in human T98G cells assessed as increase in early apoptotic cells at 92 uM pretreated for 2 hrs followed by TMZ addition and measured after 96 hrs by Annexin V-FITC/PI staining based flow cytometry analysis (reference value: 2 %); assay type: functional; conditions: time 98 hrs

| SMILES | Activity [2] | Activity [3] | Activity [4] | Stability [5] | GI50 (T98G [7]) [µM] | pKd (Calf thymus DNA [8]) | Activity [9] | ΔTm (Calf thymus DNA [11]) [°C] | Activity (T98G [16]) | also measured |
| --- | --- | --- | --- | --- | --- | --- | --- | --- | --- | --- |
| COc1ccc2nc3cc(Cl)ccc3c(NCCC(=O)NCc3cccc(COc4nc(N)nc5[nH]cnc45)c3)c2c1 | 0.07 | 0.12 | 0.06 | Stable | 15.6 | 4.79 | 0.08 | 1.5 | – | Activity (T98G [1]): Active; Activity (T98G [6]): Active; Activity (T98G [10]): Active |
| NCc1cccc(COc2nc(N)nc3nc[nH]c23)c1 | – | – | – | – | > 25 | – | – | – | – | Activity (T98G [12]): Active; Activity (T98G [13]): Active; Activity (T98G [14]): Active |
| COc1ccc2nc3cc(Cl)ccc3c(N)c2c1 | 0.42 | 0.22 | 0.22 | – | 0.6 | 4.79 | 0.36 | 8.5 | Active | GI50 [15]: 1 µM; Activity (T98G [17]): Active; Activity (Calf thymus DNA [18]): Active; pEC50 (Calf thymus DNA [19]): 5.10 |
| Cn1nnc2c(C(N)=O)ncn2c1=O [TEMOZOLOMIDE] | – | – | – | – | 375 | – | – | – | – | viability at 94 µM (T98G [20]): 100%; viability at 375 µM (T98G [21]): 50%; viability at 188 µM (T98G [22]): 63% |
| NCCCCn1cnc2c(OCc3ccccc3)nc(N)nc21 | – | – | – | – | > 25 | – | – | – | – | viability at 25 µM (T98G [23]): ≥ 70%; Activity (T98G [12]): Active; Activity (T98G [13]): Active; Activity (T98G [14]): Active |
| COc1ccc2nc3cc(Cl)ccc3c(NCCCCn3cnc4c(Oc5ccccc5)nc(N)nc43)c2c1 | – | – | – | – | 0.8 | – | – | – | Active | Activity (T98G [1]): Active; Activity (T98G [10]): Active |
| COc1ccc2nc3cc(Cl)ccc3c(NCCOCCOCCn3cnc4c(OCc5ccccc5)nc(N)nc43)c2c1 | 0.06 | 0.09 | 0.09 | Stable | 2.1 | 4.87 | < 0.01 | -1.4 | Active | Activity (T98G [24]): Active; Activity (T98G [17]): Active |
| COc1ccc2nc3cc(Cl)ccc3c(NCCCCn3cnc4c(OCc5ccccc5)nc(N)nc43)c2c1 | 0.06 | 0.09 | 0.07 | Stable | 1.1 | 4.72 | 0.01 | 0.6 | Active | Activity (T98G [24]): Active; Activity (T98G [25]): 11%; Activity (T98G [17]): Active; Drug uptake [26]: Active; Drug uptake [27]: Active; Activity (T98G [28]): 10% |
| Nc1nc(OCc2ccccc2)c2ncn(CCCCN3C(=O)c4ccccc4C3=O)c2n1 | – | – | – | – | > 25 | – | – | – | – | viability at 25 µM (T98G [23]): ≥ 70%; Activity (T98G [12]): Active; Activity (T98G [29]): Active; Activity (T98G [13]): Active |
| COc1ccc2nc3cc(Cl)ccc3c(NCCCCCCCCn3cnc4c(OCc5ccccc5)nc(N)nc43)c2c1 | 0.05 | 0.08 | 0.09 | Stable | 14.5 | – | 0.05 | 0.7 | – | Activity (T98G [30]): Active; Activity (T98G [6]): Active; Activity (T98G [31]): Active |
| Nc1nc(OCc2ccccc2)c2nc[nH]c2n1 [6-O-BENZYLGUANINE] | – | – | – | – | 91.8 | – | – | – | – | Activity (T98G [12]): Active; GI50 (HT-29): > 100 µM; Activity (T98G [13]): Active; Activity (T98G [14]): Active; Activity (T98G [32]): Active; Activity (T98G [33]): 8% |
| COc1ccc2nc3cc(Cl)ccc3c(NCCCCn3cnc4c(=O)[nH]c(N)nc43)c2c1 | – | – | – | – | > 25 | – | – | – | Active | Activity (T98G [10]): Active |
| COc1ccc2nc3cc(Cl)ccc3c(NCCCCCCCC(=O)NCc3cccc(COc4nc(N)nc5[nH]cnc45)c3)c2c1 | 0.06 | 0.06 | 0.04 | Stable | 19.4 | 4.84 | 0.01 | 0.2 | Active | Activity (T98G [1]): Active; Activity (T98G [31]): Active |
| COc1ccc2nc3cc(Cl)ccc3c(NCCOCCOCC(=O)NCc3cccc(COc4nc(N)nc5[nH]cnc45)c3)c2c1 | 0.06 | 0.06 | 0.05 | Stable | 25 | 4.63 | 0.01 | -0.7 | – | Activity (T98G [1]): Active; Activity (T98G [6]): Active; Activity (T98G [31]): Active |
